Assay results as given in patent publication US10046001B2, “Compositions and methods for reducing intraocular pressure” (UNIVERSITY OF MIAMI, priority 2013, dated 2018).

How the values were obtained:
[1] = system: primary TM cells embedded in collagen gel; assay: collagen gel embedded expansion and/or contraction assay; type: cell-based, human; conditions: 10 pmole lipid, collagen column length at 24 hours
Method: About 10,000 primary TM cells were placed in a capillary tube with rat collagen without (control) or after treatment with 10 pmole of indicated lipid. The change in collagen column length was measured at the end of 24 hours. Mean and standard deviation from three independent experiments are presented. As shown by yellow/gray zones, the expansions were categorized into four zones (2, 3 and 4 are identified), 1=[…]; 2=1.0 to 1.4 mm; 3=>1.4 mm but <2.0 mm; 4=2.0 and >2.0 mm.
Properties of cell ensembles in embedded matrix and assembled layer of cells on filter membranes. Gel embedded primary TM cells in collagen matrix in capillary tubes were prepared following established protocols (Ilagan, R. et al. Biotechniques. 2010; 48: 153-5), and their ability within the first 24 hours for expansion or contraction of gels (control) or the cells which were subjected to treatment with lipids for 1 hour in serum free medium prior to gel embedding were determined. Lipids that modulate cell expansion in matrix embedded assay systems (FIG. 3) were found. […] The extent of expansion was divided into four zones 1, 2, 3, and 4 (FIG. 3). The higher the number, the greater is the expansion.
Collagen gel expansion and/or contraction assay: Hydro-gel solution was prepared using 10× MEM (cat #11430, Invitrogen), Sodium Bicarbonate (cat #55761 Sigma-Aldrich), L-Glutamine (Sigma-Aldrich), HEPES (cat #15630, Invitrogen). The following solution was aliquoted in separate tubes for each transfection type. Transfection complexes were prepared in individual tubes containing a mixture of the transfection agent (Lipofectamine 2000, Invitrogen) and desired DNA vectors in a ratio of 0.4 ug/uL, following the manufacturer's preparation guidelines. Trabecular meshwork cells were obtained from a confluent layer of trypsin-treated 25 cm^2 cell culture flask (cat #353109, Becton Dickinson, Franklin Lakes, N.J.) sedimented for 5 minutes at 800 RPM. Cell pellet was then re-suspended in serum free DMEM 1×, (Mediatech) media, thoroughly mixed and finally, equally aliquoted into each respective transfection-complex containing vessel. The reaction was allowed to occur for 45 minutes, after which it was terminated through addition of cell culture media and rat tail collagen (cat #354249, BD, San Jose, Calif.) to initiate gel polymerization. The suspension was gently mixed by aspiration and aspirated into 1 mL single use needle syringe and injected into a borosilicate glass capillary (O.D −1.0 mm, IN.D −0.75 mm) (cat #TW100-6, WPI) to approximately half of its volume. A digital picture snapshot was taken of all capillaries prepared against a blank background with a millimeter scale, repeated at 24 and 48 hours. The hydro-gel containing capillaries were incubated inside a moisture chamber to prevent dehydration in a cell line incubator at 37° C. and 5% CO2. Photographs obtained were analyzed using ImageJ (v.1.43u) measuring between chosen points on the opposite ends of the gel. Amassed length data was statistically analyzed using Microsoft Excel (XP).

DBA/2J mice = assay: IOP lowering after topical application in DBA/2J mice; type: in vivo, mouse; conditions: DBA/2J mice, topical 10 pmole in 5% DMSO, once daily
Method: The right eye was treated with vehicle alone and left eye treated with lipid. Control had both eyes treated with vehicle. A. In DBA/2J mice the indicated lipid in vehicle or control (vehicle only) were administered one daily at around 7.5 months of age in mice which were noted to have a IOP≥18 mm of Hg (20% increase from an average baseline of 15 mm of Hg was employed as treatment point). The average IOP recordings are shown for indicated lipids. B. A 10 picomole each of six PC (13:0/13:0; PE (18:0/18:0), Lyso-PS 18:0, PS 18:1, Sphinganine and C17S1P) were combined and applied as a topical dose once daily for up to 7 days on DBA/2J mouse eyes in 5% DMSO (vehicle). […] Transgenic myocillin mice [Tg-MYOC(Y437H)] subjected to a topical dose of indicated lipids as noted above (FIG. 5C). The IOP lowering compared to control was noted on day 4 and 6 as shown.
Intraocular pressure lowering in mouse models. The endogenous lipids lowered IOP in a DBA/2J mouse model of glaucoma (FIG. 5A). DBA/2J is the only known mouse animal where elevation of IOP occur spontaneously. Although this mouse also suffers from pigmentary dispersion, however, elevation of IOP appears not to correlate with […]. The lipids as indicated were applied as a topical dose (10 pmole in 5% DMSO as vehicle). The 5% DMSO only vehicle served as a control (FIG. 5A). […] A 10 picomole each of six PC (13:0/13:0; PE (18:0/18:0), Lyso-PS 18:0, PS 18:1, Sphinganine, and C17S1P) were combined and applied as a topical dose once daily for up to 7 days on DBA/2J mouse eyes in 5% DMSO (vehicle) (in other words, 10 picomoles of each PC was included). […] In addition to the DBA/2J model described here, these endogenous lipids lowered IOP in cochlin and connective tissue growth factor (CTGF) over-expression models. […] Thus the endogenous lipids assessed here lowered IOP in vastly different DBA/2J and MYOC(Y437H) mouse models as well as in cochlin and CTGF overexpression models covering a broad swath of four rodent glaucoma models that encompass induced as well as spontaneous IOP elevation.
Topical application of lipids and measurement of IOP: The lipids were topically applied as 1 μl drops with 10 pmole lipids. Pressure was measured with a tonolab (Colonial
Medical Supplies, N.H.) or with an assembled cannulation device, used in our laboratory. An initial assessment had utilized 10% DMSO as vehicle. However, all data reported here utilized 5% DMSO.

[2] = system: normotensive cynomolgus monkeys; assay: IOP and slit lamp examination in normotensive cynomolgus monkeys after topical lipid; type: in vivo
Method: Lipids were topically administered in 1 μl volume around ˜1 pm in the afternoon. The right eye was treated with vehicle alone, and the left eye was treated with lipid. The cynomolgus monkeys (n=4) were treated with […] lipid (except C17S1P which was 50 nM) for 5 days. Monkeys were subjected to slit lamp examination and IOP measurement prior to and after treatment. The IOP measured 3-6 hours post-treatment on the fifth day of treatment is depicted as solid bars. The hollow bars are control (vehicle only (5% DMSO)).
Experimental design: The IOP-reducing activity of six lipids was tested in the eyes of cynomolgus monkeys (n=4 animals for each lipid). Baseline slit lamp biomicroscopic examination (SLE) and IOP for each group of animals was measured prior to topical application of lipids. The SLE and IOP were then measured at 3-6 hours posttreatment. One eye of each monkey received topical application with the lipid suspended in vehicle (1% dimethylsulfoxide (DMSO)), and the contralateral eye was treated with vehicle only. All topical applications contained 10 picomole of lipid (except C17S1P, which was 50 nM). […] The IOP was measured using a minified Goldmann applanation tonometer.

SMILES | gel expansion/contraction of cells in artificial embedment [1] | lowering of IOP (DBA/2J mice) | IOP reduction ([2]; topical 10 picomole (C17S1P 50 nM), 5 days, IOP 3-6 hours post-treatment) | adverse side effects or toxicity ([2]; topical, slit lamp examination)
CCCCCCCCCCCCCC(=O)OC[C@@H](O)COP(=O)(O)OC[C@H](N)C(=O)O [PS(14:0/0:0)] | showed an effect | lowering of IOP | – | –
CCCC/C=C\CCCCCCCC(=O)O[C@H](COC(=O)CCCCCCCCCCC)COP(=O)([O-])OCC[N+](C)(C)C [PC(12:0/14:1(9Z))] | lack of any effect | not | – | –
CCCCC/C=C\C/C=C\C/C=C\C/C=C\CCCC(=O)O[C@H](COC(=O)CCCCCCCCCCCCCCCCC)COP(=O)(O)OC1[C@H](O)[C@H](O)C(O)[C@H](O)[C@H]1O (some centres unmarked) [PI(18:0/20:4)5Z,8Z,11Z,14Z))] | showed an effect | lowering of IOP | – | –
CCCCCCCCCCCCCCCCCC(=O)OC[C@@H](O)COP(=O)(O)OC[C@H](N)C(=O)O [PS(18:0/0:0)] | showed an effect | lowering of IOP | – | –
CCCCCCCCCCCCC(=O)OC[C@H](COP(=O)([O-])OCC[N+](C)(C)C)OC(=O)CCCCCCCCCCCC [PC(13:0/13:0), 1,2-ditridecanoyl-sn-glycero-3-phosphocholine, reference compound] | lack of any effect | not | – | –
CCCCCCCCCCCCCC[C@@H](O)[C@@H](N)COP(=O)(O)O [C17 Sphinganine-1-phosphate] | showed an effect | lowering of IOP | reduced IOP significantly | without additional adverse side effects or toxicity
CCCCCCCCCCCCCCC[C@@H](O)[C@@H](N)CO [Sphinganine] | showed an effect | lowering of IOP | – | –
CCCCCCCCCCC/C=C/[C@@H](O)[C@H](COP(=O)([O-])OCC[N+](C)(C)C)NC(=O)CCCCCCCCCCCCCCCCCCCCCCCC [SM(d16:1/25:0)] | showed an effect | lowering of IOP | – | –
CCCCCCCCCCCCCCCCCC(=O)OC[C@H](COP(=O)(O)OCCN)OC(=O)CCCCCCCCCCCCCCCCC [PE(18:0/18:0)] | showed an effect | lowering of IOP | – | –
CCCC/C=C\C/C=C\CCCCCCCC(=O)O[C@H](COC(=O)CCCCCCCCCCC)COP(=O)(O)OC1C(O)C(O)C(O)[C@@H](O)C1O (some centres unmarked) [PI(12:0/17:2)9Z,12Z))] | showed an effect | lowering of IOP | – | –
CCCCCCCC/C=C\CCCCCCCCCCCCCCCC(=O)N[C@@H](CO)[C@H](O)/C=C/CCCCCCCCCCCCC [Cer(d18:1/26:1(17Z))] | showed an effect | lowering of IOP | – | –
CCCCCCCC/C=C\CCCCCCCC(=O)N[C@@H](CO)[C@H](O)CCCCCCCCCCCCCCC [Cer(d18:0/18:1(9Z))] | showed an effect | lowering of IOP | – | –
